Consider 9 compounds from ChEMBL document CHEMBL1201862, “PubChem BioAssay data set” (2004).

Some test systems named below: OVCAR-3; SF-268; HOP-92; SNB-19; NCI-H23; COLO 205; DMS-114; CCRF-CEM; SK-OV-3; SW-620; A498; SN12C; SF-295; A549; SK-MEL-2; NCI-H522; LXFL 529; OVCAR-4; MDA-MB-435; DU-145.
Holding throughout (test): growth of human tumour cells (NCI), 48 h

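These data come from cells grown in 96-well plates and exposed to compound for 48 hours at five concentrations. Abbreviation: GI50, concentration required for 50% inhibition of growth.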 The source made the active and inactive calls. No stated cut-off is given here; in the data, active = GI50 up to about 1.1 µM and inactive = higher.

As for `Cc1nc(N)sc1C(=O)/C=C/c1ccc([N+](=O)[O-])cc1`, the GI50 in the assay with OVCAR-3, with SF-268, in the assay on HOP-92, in the assay with SNB-19, with NCI-H23 and in the assay on COLO 205 was > 100 µM (inactive) each time. Also, the GI50 with DMS-114, in the assay with CCRF-CEM, with SK-OV-3, with SW-620, with A498 and in the assay on SN12C was > 100 µM (inactive) each time. Also, the GI50 in the assay with SF-295, in the assay on A549, with SK-MEL-2 and with NCI-H522 was > 100 µM (inactive) in each case.
Take `CCOC(=N)CC(=O)NC(C)c1ccccc1` (configuration not stated): the GI50 in the assay on OVCAR-3, with SF-268, in the assay with LXFL 529, in the assay with SNB-19, with NCI-H23 and in the assay on COLO 205 was > 100 µM (inactive) throughout. In addition, the GI50 in the assay with OVCAR-4, with CCRF-CEM, in the assay with SK-OV-3, in the assay with SW-620, in the assay with A498 and with SN12C was > 100 µM (inactive) each time. Also, the GI50 in the assay on SF-295, with A549, with SK-MEL-2 and in the assay with NCI-H522 was > 100 µM (inactive) in each case.
In the case of `CN(C)/C=C/C(=CC=[N+](C)C)/C=C/N(C)C.[O-][Cl+3]([O-])([O-])[O-]`, the GI50 in the assay with OVCAR-3, in the assay on SF-268, in the assay on HOP-92, in the assay with LXFL 529, in the assay with SNB-19 and with NCI-H23 was > 100 µM (inactive) in each case. For the same compound, the GI50 is > 100 µM (inactive) in the assay with OVCAR-4; 60.3 µM (inactive) in the assay with CCRF-CEM; 16.7 µM (inactive) in the assay with SK-OV-3; > 100 µM (inactive) with SW-620; 31.3 µM (inactive) with A498; > 100 µM (inactive) in the assay on SN12C. For the same compound, the GI50 with SF-295, with A549, in the assay on SK-MEL-2 and in the assay with NCI-H522 was > 100 µM (inactive) throughout.
Consider `COC(=O)C(C(=O)Cc1ccccc1[N+](=O)[O-])C(=O)OC`, for which the GI50 in the assay with OVCAR-3, in the assay on SF-268, with HOP-92, in the assay with LXFL 529, in the assay with SNB-19 and in the assay on NCI-H23 was > 100 µM (inactive) each time. In addition, the GI50 was > 100 µM (inactive) with COLO 205; > 100 µM (inactive) in the assay with OVCAR-4; 74.6 µM (inactive) with CCRF-CEM; > 100 µM (inactive) in the assay on SK-OV-3; > 100 µM (inactive) in the assay on SW-620; > 100 µM (inactive) in the assay with SN12C. The GI50 in the assay on SF-295 is 42.2 µM (inactive); with A549 it was > 100 µM (inactive); in the assay on SK-MEL-2, > 100 µM (inactive); in the assay with NCI-H522 it was > 100 µM (inactive).
On to `Cc1c(N)c(C#N)c2n(C)c3ncccc3n2c1=O`, for which the GI50 in the assay with OVCAR-3, with SF-268, in the assay with HOP-92, in the assay with LXFL 529, in the assay with SNB-19 and in the assay with NCI-H23 was > 100 µM (inactive) in each case. Also, the GI50 with COLO 205, with OVCAR-4, in the assay with CCRF-CEM, in the assay with SK-OV-3, with SW-620 and with SN12C was > 100 µM (inactive) each time. The GI50 with SF-295, with A549, with SK-MEL-2 and in the assay on NCI-H522 was > 100 µM (inactive) throughout.
Turning to `Cc1nc2nn[nH]n2c(=O)c1CCO`, the GI50 in the assay with OVCAR-3, in the assay with SF-268, in the assay with HOP-92, in the assay on SNB-19, in the assay with NCI-H23 and with COLO 205 was > 100 µM (inactive) throughout. Also, the GI50 with OVCAR-4, in the assay with CCRF-CEM, with MDA-MB-435, in the assay with SK-OV-3, in the assay with SW-620 and with A498 was > 100 µM (inactive) each time. Moreover, the GI50 with SN12C, in the assay with SF-295, in the assay with DU-145, with A549, in the assay on SK-MEL-2 and in the assay on NCI-H522 was > 100 µM (inactive) in each case.
For `N/C(=N\Nc1ccc(Cl)cc1)c1cnccn1`, the GI50 in the assay on OVCAR-3 is 64.3 µM (inactive); with SF-268, > 100 µM (inactive); in the assay on HOP-92 it was > 100 µM (inactive); in the assay on SNB-19, > 100 µM (inactive); in the assay on NCI-H23, > 100 µM (inactive); in the assay with COLO 205, 18 µM (inactive). Moreover, the GI50 in the assay with OVCAR-4 was 29.1 µM (inactive); with CCRF-CEM, 28.6 µM (inactive); in the assay on MDA-MB-435, 16.3 µM (inactive); in the assay on SK-OV-3 it was > 100 µM (inactive); in the assay on SW-620, > 100 µM (inactive); in the assay on A498, > 100 µM (inactive). The GI50 in the assay on SN12C was > 100 µM (inactive); with SF-295, 13.2 µM (inactive); with DU-145, > 100 µM (inactive); in the assay on A549 it was > 100 µM (inactive); in the assay on SK-MEL-2, 58.1 µM (inactive); in the assay on NCI-H522, 28.3 µM (inactive).
Take `COc1cc(C2C=C(c3ccccc3)Oc3cc4c(cc32)OCO4)cc(OC)c1OC` (configuration not stated): the GI50 with OVCAR-3 was 0.324 µM (active); with SF-268, 3.17 µM (inactive); with HOP-92 it was 15 µM (inactive); in the assay on SNB-19 it was 3.94 µM (inactive); in the assay on NCI-H23, 0.436 µM (active); in the assay on COLO 205, 0.33 µM (active). The GI50 is 6.37 µM (inactive) in the assay on OVCAR-4; 0.46 µM (active) with CCRF-CEM; 0.188 µM (active) with MDA-MB-435; 0.191 µM (active) in the assay on SK-OV-3; 0.406 µM (active) in the assay on SW-620; 0.495 µM (active) in the assay on A498. The GI50 with SN12C was 0.675 µM (active); with SF-295, 0.124 µM (active); in the assay with DU-145 it was 0.361 µM (active); in the assay on A549, 0.2 µM (active); with SK-MEL-2, 1.91 µM (inactive); in the assay with NCI-H522, 0.327 µM (active).
Take `O=c1[nH]c(=O)n(C2CC(O)C(CO)O2)cc1I` (configuration not stated): the GI50 in the assay with OVCAR-3, in the assay on SF-268, in the assay with HOP-92, in the assay on SNB-19, in the assay on NCI-H23 and in the assay on COLO 205 was > 100 µM (inactive) each time. The GI50 is > 100 µM (inactive) with OVCAR-4; 17.5 µM (inactive) with CCRF-CEM; > 100 µM (inactive) in the assay with MDA-MB-435; > 100 µM (inactive) with SK-OV-3; > 100 µM (inactive) in the assay on SW-620; > 100 µM (inactive) in the assay on A498. For the same compound, the GI50 with SN12C was 89.9 µM (inactive); with SF-295, > 100 µM (inactive); in the assay with DU-145, > 100 µM (inactive); in the assay with A549, > 73.1 µM (inactive); in the assay with SK-MEL-2, > 100 µM (inactive); in the assay with NCI-H522 it was > 100 µM (inactive).
